Reference: patent publication US11365188B2, “JAK inhibitors” (priority 2018, dated 2022)

Assays:
Assay type in all cases: biochemical
JAK2 = JAK2 (Homo sapiens, UniProt O60674); test: JAK2 Assay (Caliper EZ Reader, fluoresceinated peptide); settings: ATP 11.4 μM; JAK2 0.25 nM; 15 minutes at room temperature; read-out: JAK2 inhibition
Procedure: JAK2 Assay 384-well plates in the left foot butoxy measured progress. The final assay volume was 25 μL, 250 nL 100× compounds, 10 μL enzyme mix and 15 μL substrate mix (fluoresceinated peptide and ATP) in assay buffer (50 mM HEPES (pH 7.5), 10 mM MgCl2, 0.01% TritonX-100, 0.01% Brij35, 0.5 mM EGTA and 2 mM DTT) prepared as test compound By mixing the JAK2 with substrates and test compounds to start the reaction. The reaction mixture was incubated for 15 minutes at room temperature, then added 30 μL stop buffer for each sample to terminate the reaction with 50 mM EDTA. After termination of the kinase reaction, the proportion of phosphorylated product was determined as a fraction of total peptide substrate using Caliper EZ Reader 1 Inhibition data were calculated by comparison with 100% of the reaction mixture without enzyme inhibition and vehicle-only reaction mixture billion % inhibition compared. The final concentration of reagents in the assays is: ATP, 11.4 μM; JAK2 fluorescent peptide (5-FAM-EEPLYWSFPAKKK-CONH2), 3 μM; JAK2, 0.25 nM; and DMSO, 1%. Dose response curve were generated to determine the concentration required for IC50 of JAK2 activity.

JAK1 = JAK1 (Homo sapiens, UniProt P23458); test: JAK Kinase Assay (JAK1, Caliper EZ Reader, fluoresceinated peptide); settings: ATP 76.5 μM; JAK1 10 nM; 120 minutes at room temperature; read-out: JAK1 inhibition
JAK3 = target: T1, JAK3 (Homo sapiens, UniProt P52333); test: JAK3 Assay (Caliper EZ Reader, fluoresceinated peptide); settings: ATP 3.5 μM; JAK3 0.5 nM; 30 minutes at room temperature; read-out: JAK3 inhibition
T1 sequence (P52333 1-1124): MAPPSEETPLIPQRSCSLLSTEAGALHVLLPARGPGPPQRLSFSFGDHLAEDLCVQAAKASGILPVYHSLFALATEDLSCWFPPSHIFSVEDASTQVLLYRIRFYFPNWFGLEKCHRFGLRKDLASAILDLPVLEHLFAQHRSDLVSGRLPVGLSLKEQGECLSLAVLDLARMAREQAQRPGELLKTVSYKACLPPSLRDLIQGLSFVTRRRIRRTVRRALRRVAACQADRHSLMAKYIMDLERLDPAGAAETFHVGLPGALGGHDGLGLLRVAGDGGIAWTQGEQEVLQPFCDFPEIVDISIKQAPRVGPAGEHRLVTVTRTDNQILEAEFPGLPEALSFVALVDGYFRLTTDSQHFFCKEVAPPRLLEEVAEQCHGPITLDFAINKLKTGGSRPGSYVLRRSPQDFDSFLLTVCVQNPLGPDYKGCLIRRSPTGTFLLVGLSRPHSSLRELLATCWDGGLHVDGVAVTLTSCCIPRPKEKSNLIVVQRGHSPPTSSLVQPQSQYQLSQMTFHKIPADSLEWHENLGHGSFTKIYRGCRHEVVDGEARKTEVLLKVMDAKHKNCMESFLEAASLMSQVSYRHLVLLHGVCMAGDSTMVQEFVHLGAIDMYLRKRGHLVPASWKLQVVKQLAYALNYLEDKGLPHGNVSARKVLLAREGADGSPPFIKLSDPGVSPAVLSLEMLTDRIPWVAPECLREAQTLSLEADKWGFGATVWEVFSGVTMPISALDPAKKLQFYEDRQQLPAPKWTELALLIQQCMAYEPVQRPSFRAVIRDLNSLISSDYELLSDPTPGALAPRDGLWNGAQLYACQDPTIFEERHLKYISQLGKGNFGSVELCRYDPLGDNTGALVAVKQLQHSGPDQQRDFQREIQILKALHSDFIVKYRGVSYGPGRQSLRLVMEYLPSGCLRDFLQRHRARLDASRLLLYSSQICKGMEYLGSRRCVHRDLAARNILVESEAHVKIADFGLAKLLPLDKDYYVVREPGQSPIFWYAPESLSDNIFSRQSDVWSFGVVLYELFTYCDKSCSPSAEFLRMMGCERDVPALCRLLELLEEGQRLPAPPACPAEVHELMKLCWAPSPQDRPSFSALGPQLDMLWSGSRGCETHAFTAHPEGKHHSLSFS
Procedure: JAK3 Assay 384-well plates in the left foot butoxy measured progress. The final assay volume was 25 μL, 250 nL 100× compounds, 10 μL enzyme mix and 15 μL substrate mix (fluoresceinated peptide and ATP) in assay buffer (50 mM HEPES (pH 7.5), 10 mM MgCl2, 0.01% TritonX-100, 0.01% Brij35, 0.5 mM EGTA and 2 mM DTT) prepared as test compound. By mixing the JAK3 with substrates and test compounds to start the reaction. The reaction mixture was incubated for 30 minutes at room temperature, then added 30 μL stop buffer for each sample to terminate the reaction with 50 mM EDTA. After termination of the kinase reaction, the proportion of phosphorylated product was determined as a fraction of total peptide substrate using Caliper EZ Reader II. Inhibition data were calculated by comparison with 100% of the reaction mixture without enzyme inhibition and vehicle-only reaction mixture billion % inhibition compared. The final concentration of reagents in the assays is: ATP, 3.5 μM; JAK3 fluorescent peptide (5-FAM-EEPLYWSFPAKKK-CONH2), 3 μM; JAK3, 0.5 nM; and DMSO, 1%. Dose response curve were generated to determine the concentration required for IC50 of JAK3 activity.

Chain of JAK1 (P23458 whole entry, species assumed): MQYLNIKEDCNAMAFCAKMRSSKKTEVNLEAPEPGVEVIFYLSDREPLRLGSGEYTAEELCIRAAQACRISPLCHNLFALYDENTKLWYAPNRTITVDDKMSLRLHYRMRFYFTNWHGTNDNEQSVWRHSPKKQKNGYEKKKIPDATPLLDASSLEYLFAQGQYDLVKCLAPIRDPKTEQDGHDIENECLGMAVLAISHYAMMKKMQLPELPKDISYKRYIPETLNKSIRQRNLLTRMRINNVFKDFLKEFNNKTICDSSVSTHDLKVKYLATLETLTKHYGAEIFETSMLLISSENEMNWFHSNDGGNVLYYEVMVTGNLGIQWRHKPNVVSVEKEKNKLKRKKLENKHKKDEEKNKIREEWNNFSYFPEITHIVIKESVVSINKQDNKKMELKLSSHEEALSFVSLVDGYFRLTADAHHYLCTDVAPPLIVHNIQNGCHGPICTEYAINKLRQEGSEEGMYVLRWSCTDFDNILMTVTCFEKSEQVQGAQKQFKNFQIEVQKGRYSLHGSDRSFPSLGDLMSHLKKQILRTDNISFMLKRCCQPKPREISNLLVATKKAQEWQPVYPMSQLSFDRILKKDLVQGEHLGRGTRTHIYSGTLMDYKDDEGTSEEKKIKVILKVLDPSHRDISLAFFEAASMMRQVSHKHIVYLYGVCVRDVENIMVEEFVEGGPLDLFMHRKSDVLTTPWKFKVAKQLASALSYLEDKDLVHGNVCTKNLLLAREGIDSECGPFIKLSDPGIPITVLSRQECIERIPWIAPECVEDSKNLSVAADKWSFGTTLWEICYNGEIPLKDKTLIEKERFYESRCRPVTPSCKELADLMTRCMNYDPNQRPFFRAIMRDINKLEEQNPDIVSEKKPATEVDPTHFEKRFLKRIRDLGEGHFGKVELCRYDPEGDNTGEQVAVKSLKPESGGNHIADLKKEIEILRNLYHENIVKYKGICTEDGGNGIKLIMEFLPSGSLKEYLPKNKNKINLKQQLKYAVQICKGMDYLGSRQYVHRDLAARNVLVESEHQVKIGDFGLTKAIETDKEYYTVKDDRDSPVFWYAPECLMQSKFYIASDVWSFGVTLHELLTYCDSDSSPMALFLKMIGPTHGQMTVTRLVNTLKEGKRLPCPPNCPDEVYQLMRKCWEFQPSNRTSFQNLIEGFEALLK
Chain of JAK2 (O60674 whole entry, species assumed): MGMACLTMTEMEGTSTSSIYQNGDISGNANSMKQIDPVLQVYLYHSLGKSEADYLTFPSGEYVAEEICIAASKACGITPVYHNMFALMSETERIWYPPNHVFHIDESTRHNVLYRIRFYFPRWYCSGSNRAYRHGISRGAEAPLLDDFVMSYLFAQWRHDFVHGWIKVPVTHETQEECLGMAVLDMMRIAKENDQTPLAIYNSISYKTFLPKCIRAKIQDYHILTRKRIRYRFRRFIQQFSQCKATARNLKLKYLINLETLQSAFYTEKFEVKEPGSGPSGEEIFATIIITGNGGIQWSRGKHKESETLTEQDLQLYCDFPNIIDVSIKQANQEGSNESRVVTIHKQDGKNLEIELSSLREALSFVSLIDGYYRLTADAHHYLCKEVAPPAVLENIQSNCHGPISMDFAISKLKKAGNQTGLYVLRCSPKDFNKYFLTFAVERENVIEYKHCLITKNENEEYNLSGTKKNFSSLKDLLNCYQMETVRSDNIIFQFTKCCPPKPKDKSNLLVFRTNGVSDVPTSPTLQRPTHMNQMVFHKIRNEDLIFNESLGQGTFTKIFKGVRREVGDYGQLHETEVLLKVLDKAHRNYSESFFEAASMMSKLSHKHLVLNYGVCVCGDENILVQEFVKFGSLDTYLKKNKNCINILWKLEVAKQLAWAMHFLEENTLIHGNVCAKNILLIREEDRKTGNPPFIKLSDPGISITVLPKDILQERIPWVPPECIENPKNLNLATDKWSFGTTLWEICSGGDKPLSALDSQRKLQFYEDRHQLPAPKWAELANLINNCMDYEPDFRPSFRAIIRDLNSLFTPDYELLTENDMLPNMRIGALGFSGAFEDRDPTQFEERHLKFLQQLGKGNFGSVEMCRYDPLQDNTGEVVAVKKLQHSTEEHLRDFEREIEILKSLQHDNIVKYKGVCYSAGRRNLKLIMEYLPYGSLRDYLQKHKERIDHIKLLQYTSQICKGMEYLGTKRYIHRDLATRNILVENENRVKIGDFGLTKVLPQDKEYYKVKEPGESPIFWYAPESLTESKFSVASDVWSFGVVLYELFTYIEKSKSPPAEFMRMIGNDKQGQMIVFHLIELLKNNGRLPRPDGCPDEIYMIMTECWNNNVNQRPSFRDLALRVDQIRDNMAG

Row | Compound | IC50 (JAK2) [µM] | IC50 (JAK1) [µM] | IC50 (JAK3) [µM]
1 | CC(=O)N1CCC2(CCC(N(C)c3ncnc4[nH]ccc34)CC2)CC1 [Compound 75, 1-{9-[Methyl-(7H-pyrrolo[2,3-d]pyrimidin-4-yl)-amino]-3-aza-spiro[5.5]undec-3-yl}-ethanone] | 0.01 to 0.1 | 0.01 to 0.1 | 0.1 to 1
2 | COC(=O)N1CCC2(CCC(N(C)c3ncnc4[nH]ccc34)CC2)CC1 [Compound 73, Methyl 9-(methyl(7H-pyrrolo[2,3-d]pyrimidin-4-yl)amino)-3-azaspiro[5.5]undecane-3-carboxylate] | 0.1 to 1 | ≤ 0.01 | 0.1 to 1
3 | CC(C)OC(=O)N1CCC2(CCC(N(C)c3ncnc4c3CCN4)CC2)CC1 [Compound 98, 9-[(6,7-Dihydro-5H-pyrrolo[2,3-d]pyrimidin-4-yl)-methyl-amino]-3-aza-spiro[5.5]undecane-3-carboxylic acid isopropyl ester] | 0.1 to 1 | 0.01 to 0.1 | 1 to 10
4 | CN(c1ncnc2[nH]ccc12)C1CCC2(CC1)CCN(C(=O)c1cc3ccccc3s1)CC2 [Compound 105, Benzo[b]thiophen-2-yl-{9-[methyl-(7H-pyrrolo[2,3-d]pyrimidin-4-yl)-amino]-3-aza-spiro[5.5]undec-3-yl}-methanone] | 0.1 to 1 | 0.1 to 1 | 1 to 10
5 | CCS(=O)(=O)N1CC2(CC(N(C)c3ncnc4[nH]ccc34)C2)C1 [Compound 6, N-(2-(ethylsulfonyl)-2-azaspiro[3.3]heptan-6-yl)-N-methyl-7H-pyrrolo[2,3-d]pyrimidin-4-amine] | 0.1 to 1 | 0.1 to 1 | ≥ 10
6 | CN(c1ncnc2[nH]ccc12)C1CCC2(CC1)CCN(C(=O)CC#N)CC2 [Compound 104, 3-{9-[Methyl-(7H-pyrrolo[2,3-d]pyrimidin-4-yl)-amino]-3-aza-spiro[5.5]undec-3-yl}-3-oxo-propionitrile] | 1 to 10 | 1 to 10 | 1 to 10
7 | CN(c1ncnc2[nH]ccc12)C1CCC2(CC1)CCN(C(=O)c1cccc(C(F)(F)F)c1)CC2 [Compound 83, {9-[Methyl-(7H-pyrrolo[2,3-d]pyrimidin-4-yl)-amino]-3-aza-spiro[5.5]undec-3-yl}-(3-trifluoromethyl-phenyl)-methanone] | 0.1 to 1 | 0.1 to 1 | 1 to 10
8 | CN(c1ncnc2[nH]ccc12)C1CCC2(CC1)CCN(C(=O)Cc1ccc(C#N)cc1)CC2 [Compound 85, 4-(2-{9-[Methyl-(7H-pyrrolo[2,3-d]pyrimidin-4-yl)-amino]-3-aza-spiro[5.5]undec-3-yl}-2-oxo-ethyl)-benzonitrile] | 0.1 to 1 | 0.01 to 0.1 | 0.1 to 1
9 | CCS(=O)(=O)N1CCC2(CCC(N(C)c3ncnc4[nH]ccc34)CC2)CC1 [Compound 76, (3-Ethanesulfonyl-3-aza-spiro[5.5]undec-9-yl)-methyl-(7H-pyrrolo[2,3-d]pyrimidin-4-yl)-amine] | 0.1 to 1 | 0.1 to 1 | 1 to 10

Other lines, results leading:

Row | IC50 (JAK2) [µM] | IC50 (JAK1) [µM] | IC50 (JAK3) [µM] | Compound
10 | 1 to 10 | 0.1 to 1 | ≥ 10 | Cc1cc(C#N)ccc1C(=O)N1CC2(CC(N(C)c3ncnc4[nH]ccc34)C2)C1 [Compound 44, 3-methyl-4-(6-(methyl(7H-pyrrolo[2,3-d]pyrimidin-4-yl)amino)-2-azaspiro[3.3]heptane-2-carbonyl)benzonitrile]
11 | 1 to 10 | 0.1 to 1 | 1 to 10 | CN(c1ncnc2[nH]ccc12)C1CC2(C1)CN(C(=O)Cc1ccc(C#N)cc1)C2 [Compound 15, 4-(2-(6-(methyl(7H-pyrrolo[2,3-d]pyrimidin-4-yl)amino)-2-azaspiro[3.3]heptan-2-yl)-2-oxoethyl)benzonitrile]
12 | 1 to 10 | 0.1 to 1 | ≥ 10 | CN(c1ncnc2[nH]ccc12)C1CC2(C1)CN(C(=O)c1cccc(OC(F)(F)F)c1)C2 [Compound 17, (6-(methyl(7H-pyrrolo[2,3-d]pyrimidin-4-yl)amino)-2-azaspiro[3.3]heptan-2-yl)(3-(trifluoromethoxy)phenyl)methanone]
13 | 1 to 10 | 0.01 to 0.1 | 1 to 10 | CN(c1ncnc2[nH]ccc12)C1CC2(C1)CN(C(=O)c1ccc(C#N)nc1)C2 [Compound 35, 5-(6-(methyl(7H-pyrrolo[2,3-d]pyrimidin-4-yl)amino)-2-azaspiro[3.3]heptane-2-carbonyl)picolinonitrile]
14 | 1 to 10 | 0.1 to 1 | ≥ 10 | Cc1cncc(C(=O)N2CC3(CC(N(C)c4ncnc5[nH]ccc45)C3)C2)n1 [Compound 29, (6-(methyl(7H-pyrrolo[2,3-d]pyrimidin-4-yl)amino)-2-azaspiro[3.3]heptan-2-yl)(6-methylpyrazin-2-yl)methanone]
15 | 1 to 10 | 0.01 to 0.1 | 1 to 10 | CN(c1ncnc2[nH]ccc12)C1CC2(C1)CN(C(=O)c1ccc(C#N)c(Cl)c1)C2 [Compound 36, 2-chloro-4-(6-(methyl(7H-pyrrolo[2,3-d]pyrimidin-4-yl)amino)-2-azaspiro[3.3]heptane-2-carbonyl)benzonitrile]
16 | 0.1 to 1 | 0.1 to 1 | 1 to 10 | CN(c1ncnc2[nH]ccc12)C1CCC2(CC1)CCN(C(=O)c1ccc(C#N)cc1F)CC2 [Compound 84, 3-Fluoro-4-{9-[methyl-(7H-pyrrolo[2,3-d]pyrimidin-4-yl)-amino]-3-aza-spiro[5.5]undecane-3-carbonyl}-benzonitrile]
17 | 0.1 to 1 | 0.1 to 1 | 1 to 10 | CN(c1ncnc2[nH]ccc12)C1CC2(C1)CN(C(=O)CC#N)C2 [Compound 2, 3-(6-(methyl(7H-pyrrolo[2,3-d]pyrimidin-4-yl)amino)-2-azaspiro[3.3]heptan-2-yl)-3-oxopropanenitrile]
18 | 0.1 to 1 | 0.01 to 0.1 | 1 to 10 | CN(c1ncnc2[nH]ccc12)C1CC2(C1)CN(C(=O)c1cccc(C#N)c1)C2 [Compound 11, 3-(6-(methyl(7H-pyrrolo[2,3-d]pyrimidin-4-yl)amino)-2-azaspiro[3.3]heptane-2-carbonyl)benzonitrile]
19 | 1 to 10 | 0.1 to 1 | 1 to 10 | CN(c1ncnc2[nH]ccc12)C1CC2(C1)CN(C(=O)CCS(C)(=O)=O)C2 [Compound 16, 1-(6-(methyl(7H-pyrrolo[2,3-d]pyrimidin-4-yl)amino)-2-azaspiro[3.3]heptan-2-yl)-3-(methylsulfonyl)propan-1-one]
